Data from patent publication US20250090699A1, “FAP TARGETING CYCLIC PEPTIDES AND CONJUGATES THEREOF” (Novartis AG, priority 2023, published 2025).
Counter-ions that a name gives are not always drawn. Starred links: 1 amine or outer side, 2 acyl side, 3 side chain; linkers in the order of their positions; H or OH if unused. Non-standard residues stand in square brackets, D forms with d. Residues, ends and D or L forms follow the SMILES beside them. F4(amMeBAlaDOTALu) = lutetium complex of (S)-2,2',2''-(10-(2-((3-((4-(2-amino-2-carboxyethyl)benzyl)amino)-3-oxopropyl)(methyl)amino)-2-oxoethyl)-1,4,7,10-tetraazacyclododecane-1,4,7-triyl)triacetic acid (Phe with 4-aminomethyl-N-methyl-βAla, CN(CCC(=O)NCc1ccc(C[C@H](N[*:1])C(=O)[*:2])cc1)C(=O)CN1CCN(CC(=O)[O-])CCN(CC(=O)[O-])CCN(CC(=O)[O-])CC1.[Lu+3]; F(4amDOTA-Lu) = lutetium complex of (S)-2,2',2''-(10-(2-((4-(2-amino-2-carboxyethyl)benzyl)amino)-2-oxoethyl)-1,4,7,10-tetraazacyclododecane-1,4,7-triyl)triacetic acid (Phe with 4-aminomethyl-DOTA-Lu), O=C([O-])CN1CCN(CC(=O)[O-])CCN(CC(=O)NCc2ccc(C[C@H](N[*:1])C(=O)[*:2])cc2)CCN(CC(=O)[O-])CC1.[Lu+3]; Phe(4-CH2NH2) = NCc1ccc(C[C@H](N)C(=O)O)cc1; NMeAla(cPent) = CN[C@@H](CC1CCCC1)C(=O)O; AEF = NCCOc1ccc(C[C@H](N)C(=O)O)cc1; NMeF = CN[C@@H](Cc1ccccc1)C(=O)O; Ahp(2) = CCCCC[C@H](N)C(=O)O; AEEA = NCCOCCOCC(=O)O

Key:
mouse FAP [1] = biological target: T1, mouse FAP (Mus musculus, UniProt P97321); assay: Surface plasmon resonance (SPR) for peptide affinity, mouse FAP; type: binding
T1 construct: biotinylated His, Avi tag, mouse FAP (26-761, FAP-M82Q5); His; Avi tag (biotinylated); purchased AcroBiosystems FAP-M82Q5
T1 sequence (P97321 26-761): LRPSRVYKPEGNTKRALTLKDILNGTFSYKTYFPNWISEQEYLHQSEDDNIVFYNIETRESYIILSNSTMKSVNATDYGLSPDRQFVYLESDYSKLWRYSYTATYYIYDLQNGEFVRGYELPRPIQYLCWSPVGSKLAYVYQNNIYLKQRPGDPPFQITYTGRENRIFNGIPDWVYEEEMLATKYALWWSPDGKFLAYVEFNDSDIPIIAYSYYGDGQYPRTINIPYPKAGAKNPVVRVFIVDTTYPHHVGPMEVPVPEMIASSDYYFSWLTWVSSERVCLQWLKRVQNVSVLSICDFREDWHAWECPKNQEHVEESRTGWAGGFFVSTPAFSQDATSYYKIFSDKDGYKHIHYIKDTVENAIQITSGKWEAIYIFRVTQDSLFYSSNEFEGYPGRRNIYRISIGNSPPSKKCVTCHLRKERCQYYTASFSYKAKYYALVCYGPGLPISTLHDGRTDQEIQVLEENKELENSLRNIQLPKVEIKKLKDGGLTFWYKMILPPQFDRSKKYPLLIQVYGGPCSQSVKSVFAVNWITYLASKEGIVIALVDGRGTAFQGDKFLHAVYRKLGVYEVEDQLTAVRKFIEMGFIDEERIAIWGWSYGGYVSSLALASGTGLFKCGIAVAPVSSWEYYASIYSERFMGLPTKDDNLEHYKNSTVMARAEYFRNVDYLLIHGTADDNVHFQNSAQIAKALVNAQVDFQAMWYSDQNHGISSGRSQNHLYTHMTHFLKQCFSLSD
Protocol: Peptide affinities (KD) were determined by SPR using a Biacore™ 8K device (Cytiva) towards the following proteins: biotinylated His, Avi tag, human FAP (26-760, FAP-H82Q6), biotinylated His, Avi tag, mouse FAP (26-761, FAP-M82Q5), His tag, human DPP4 (34-766, DP4-H82E3), all purchased from AcroBiosystems and His tag, mouse DPP4 (29-760, 954-SE) from R&D Systems. The FAP proteins and their homologous were diluted to a concentration of 2 μg/mL into acetate buffer pH 5.5, then immobilized onto a CM5 sensorchip (Cytiva, BR-1005-30) to reach a response around 2000 R U. The running buffer HBS-EP+pH 7.6 (20× from Teknova CAT. No: H8022) contained 10 mM HEPES pH 7.6, 150 mM NaCl, 3 mM EDTA, 0.05% Tween20 and 2% DMSO. Experiments were carried out at 25° C. using a flow rate of 30 μL/min. Compounds were tested in single cycle kinetic mode at 8 different concentrations. Curve fitting was performed using the Biacore™ 8K evaluation software. The sensorgrams were fitted by applying a 1:1 binding model to calculate kinetic rate constants and equilibrium dissociation constants (KD).
For this assay, the setup had the same conditions (flow rate, running buffer, peptide dilution) as described above for the CM5 method. The oligo CAP reagent obtained in the CAPture Kit (Ref. 28920234) was 1/5 diluted into running buffer and used with a contact time of 300 s at a flow rate of 2 μL/min. The human and mouse FAP constructs described above were used (from AcroBiosystems or produced in house). The FAP proteins were diluted to a concentration of 2 μg/mL into acetate pH 5.5, 0.05% Tween20 and used with a contact time of 600 s at a flow rate of 10 μL/min. The peptides were tested with an association time of 280 s followed by a dissociation time of 3000 s at a flow rate of 30 μL/min. The regeneration was done using the regeneration solution (8 M guanidine-HCl, 1 M NaOH) as obtained with a contact time of 270 s at a flow rate of 10 μL/min. […] The compounds marked with an asterisk were tested against human and mouse DDP4.

human FAP = biological target: T2, human FAP (Homo sapiens, UniProt Q12884); assay: Enzymatic FAP competition assay (Z-Gly-Pro-AMC fluorescence), human FAP; type: biochemical; details: read-out: h. FAP, Enz., IC50
T2 construct: the biotinylated His, Avi tag, human FAP (26-760, FAP-H82Q6); His; Avi tag (biotinylated); purchased AcroBiosystems FAP-H82Q6
T2 sequence (Q12884 26-760): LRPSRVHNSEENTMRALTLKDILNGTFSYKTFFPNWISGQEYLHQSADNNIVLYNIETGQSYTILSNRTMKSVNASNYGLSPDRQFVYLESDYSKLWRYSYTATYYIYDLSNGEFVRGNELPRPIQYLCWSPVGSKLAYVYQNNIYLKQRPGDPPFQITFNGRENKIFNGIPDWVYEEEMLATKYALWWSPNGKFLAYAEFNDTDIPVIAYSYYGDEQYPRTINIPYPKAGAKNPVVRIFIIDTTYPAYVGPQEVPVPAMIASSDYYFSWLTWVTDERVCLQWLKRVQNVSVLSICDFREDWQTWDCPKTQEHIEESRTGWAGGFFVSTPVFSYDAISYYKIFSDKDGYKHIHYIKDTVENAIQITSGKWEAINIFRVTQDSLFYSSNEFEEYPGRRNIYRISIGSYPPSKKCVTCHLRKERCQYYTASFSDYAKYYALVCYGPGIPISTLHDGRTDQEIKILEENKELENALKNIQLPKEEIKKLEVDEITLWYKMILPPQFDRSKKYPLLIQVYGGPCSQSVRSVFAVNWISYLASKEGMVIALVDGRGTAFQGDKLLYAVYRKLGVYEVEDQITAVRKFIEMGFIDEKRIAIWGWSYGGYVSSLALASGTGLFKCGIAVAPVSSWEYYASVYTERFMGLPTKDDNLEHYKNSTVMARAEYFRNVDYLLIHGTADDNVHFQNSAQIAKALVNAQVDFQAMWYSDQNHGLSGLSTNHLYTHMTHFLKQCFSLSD
Protocol: (§1) Peptide potencies (IC50) to inhibit the FAP enzymatic activity were determined using a fluorescence-based assay towards the biotinylated His, Avi tag, human FAP (26-760, FAP-H82Q6) and the biotinylated His, Avi tag, mouse FAP (26-761, FAP-M82Q5). Standard assay conditions consisted of 20 μL total volume in white 384-well plates (Greiner, Ref. 784075), in 50 mM phosphate buffer pH 7.5 containing 150 mM NaCl, 0.05% Tween20 and 1% final DMSO. Tested peptides at 14 different concentrations up to 1 μM were added to 0.01 nM human or mouse FAP. The peptides were incubated for 24 hours together with the protein before adding the substrate 50 μM Z-Gly-Pro-AMC (I-1145 from Bachem). Samples were then incubated at 22-24° C. for 4 h before reading the fluorescence at excitation wavelength of 380 nm and emission wavelength of 460 nm using the Tecan Infinite® M1000 PRO. The high control (100% activity) was not containing any peptide, and an internal potent peptide was added at 10 μM concentration for the low control (100% inhibition). IC50 values were calculated by curve fitting using an in-house developed software (Novartis Helios software application) using the method described by Fomenko et al., 2006 (regression algorithms for nonlinear dose-response curve fitting). Following normalization of activity values for the wells to % inhibition (% inhibition=[(high control-sample)/(high control-low control)]x 100). IC50 fitting was carried out from the duplicated points.

mouse FAP [2] = biological target: T1, mouse FAP; assay: Enzymatic FAP competition assay (Z-Gly-Pro-AMC fluorescence), mouse FAP; type: biochemical; details: read-out: m. FAP, Enz., IC50
Protocol: as §1

Compound	Kd (mouse FAP [1])	IC50 (human FAP)	IC50 (mouse FAP [2])
Gly-Gly-NMePhe-F(4amDOTA-Lu)-Ahp-Trp-Gly-Tyr-Asp-D-Pro (cyclo(GG[NMeF][F(4amDOTA-Lu)][Ahp(2)]WGYD[dP]); also: Lu complex) [Example C16]	400 pM	84 pM	290 pM
CCCCC[C@@H]1NC(=O)[C@H](Cc2ccc(O)cc2)NC(=O)[C@H](CC2CCCC2)N(C)C(=O)CNC(=O)[C@H](CCCCN)NC(=O)[C@H]2CCCN2C(=O)[C@H](CC(=O)O)NC(=O)[C@H](Cc2ccc(O)cc2)NC(=O)CNC(=O)[C@H](Cc2c[nH]c3ccccc23)NC1=O [Example A44, Lys-Gly-NMecPenA-Tyr-Ahp-Trp-Gly-Tyr-Asp-D-Pro, TFA salt] (cyclo([Ahp(2)]WGYD[dP]KG[NMeAla(cPent)]Y))	2700 pM	540 pM	2500 pM
CCCCC[C@@H]1NC(=O)[C@H](Cc2ccc(OCCN)cc2)NC(=O)[C@H](Cc2ccccc2)N(C)C(=O)CNC(=O)CNC(=O)[C@H]2CCCN2C(=O)[C@H](CC(=O)O)NC(=O)[C@H](Cc2ccc(O)cc2)NC(=O)CNC(=O)[C@H](Cc2c[nH]c3ccccc23)NC1=O [Example A59, Gly-Gly-NMePhe-F(4OEtNH2)-Ahp-Trp-Gly-Tyr-Asp-D-Pro, TFA salt] (cyclo([AEF][Ahp(2)]WGYD[dP]GG[NMeF]))	380 pM	136 pM	490 pM
CCCCC[C@@H]1NC(=O)[C@H](Cc2ccc(CNC(=O)COCCOCCN)cc2)NC(=O)[C@H](Cc2ccccc2)N(C)C(=O)CNC(=O)CNC(=O)[C@H]2CCCN2C(=O)[C@H](CC(=O)O)NC(=O)[C@H](Cc2ccc(O)cc2)NC(=O)CNC(=O)[C@H](Cc2c[nH]c3ccccc23)NC1=O [Example A27, Gly-Gly-NMePhe-F(4amPEG2NH2)-Ahp-Trp-Gly-Tyr-Asp-D-Pro] (cyclo([Ahp(2)]WGYD[dP]GG[NMeF][Phe(4-CH2NH2)](AEEA)))	219 pM	45 pM	138 pM
Gly-Gly-NMePhe-F4(amMeBAlaDOTALu)-Ahp-Trp-Gly-Tyr-Asp-D-Pro (cyclo(GG[NMeF][F4(amMeBAlaDOTALu)][Ahp(2)]WGYD[dP]); also: Lu complex) [Example C11]	28 pM	9 pM	24 pM
